This data set in a line: Ratio of melting temperature to glass-transition temperature (Tm/Tg) of sugar alcohols. In kind it is physicochemical. The source says: The inventors addressed this problem by using a sugar alcohol that rapidly crystallizes, resulting in improved recovery and efficiency during the multiparticulate-formation process. Without wishing to be bound by any particular theory, it is believed that the tendency for a sugar alcohol to crystallize from an aqueous solution is characterized by the ratio of the Tm of the sugar alcohol (in K) to the glass-transition temperature for the alcohol, Tg (in K) of the sugar alcohol. The driving force for crystallization is controlled primarily by Tm, while the kinetic barrier to crystallization is controlled primarily by the Tg. The ratio, Tm/Tg (in K/K), indicates the relative propensity for a sugar alcohol to crystallize. The inventors have discovered that sugar alcohols for which the ratio of Tm in K to Tg in K is at least about 1.5 can be effectively used to make multiparticulates with the desired properties. Preferably, this Tm/Tg ratio (K/K) is at least about 1.6, and more preferably at least about 1.65. Examples of suitable sugar alcohols include mannitol (Tm=438 K; Tg=234 K; Tm/Tg=1.87) and erythritol (Tm=394 K; Tg=231 K; Tm/Tg=1.71). Mixtures of such sugar alcohols may also be used.
Take `OC[C@@H](O)[C@@H](O)CO` [Erythritol]: the Tm/Tg is given as 1.71 K/K. In the case of `OC[C@@H](O)[C@@H](O[C@H]1O[C@H](CO)[C@@H](O)[C@H](O)[C@H]1O)[C@H](O)[C@@H](O)CO` [Maltitol], the Tm/Tg is on record as 1.32 K/K. As to `OC[C@@H](O)[C@@H](O)[C@H](O)[C@H](O)CO` [Mannitol], the Tm/Tg amounted to 1.87 K/K.

Take `OC[C@@H](O)[C@@H](O)[C@H](O)[C@@H](O)CO` [Sorbitol]: the Tm/Tg stood at 1.38 K/K. As for `OC[C@@H](O)[C@H](O)[C@@H](O)CO` [Xylitol], the Tm/Tg is given as 1.46 K/K.

The values above are taken from patent US20110027372A1, “MULTIPARTICULATES COMPRISING LOW-SOLUBILITY DRUGS AND CARRIERS THAT RESULT IN RAPID DRUG RELEASE” (priority 2005, published 2011).
